For two compounds, IC50 and cytotoxicity results are on record in US20080275058A1, “N-Substituted-1H-Quinoline-2,4-Diones, Preparation Method Thereof, And Pharmaceutical Composition Containing The Same” (KOREA RESEARCH INSTITUTE OF CHEMICAL TECHNOLOGY, priority 2005, published 2008).

One data set has as its target T1, 5-HT7 (Homo sapiens, UniProt P34969).
T1 construct: purchased Euroscreen/BioSignal Packard Inc
In words: Radioligand binding, 5-HT7 ([3H]LSD). The following applies: Table 4; [3H]LSD 3 nM; read-out: Binding affinity, IC50 (nM) 5-HT7.

Another data set concerns the target T2, 5-HT1a (Homo sapiens, UniProt P08908).
T2 construct: purchased Euroscreen/BioSignal Packard Inc
T2 sequence (P08908 1-422): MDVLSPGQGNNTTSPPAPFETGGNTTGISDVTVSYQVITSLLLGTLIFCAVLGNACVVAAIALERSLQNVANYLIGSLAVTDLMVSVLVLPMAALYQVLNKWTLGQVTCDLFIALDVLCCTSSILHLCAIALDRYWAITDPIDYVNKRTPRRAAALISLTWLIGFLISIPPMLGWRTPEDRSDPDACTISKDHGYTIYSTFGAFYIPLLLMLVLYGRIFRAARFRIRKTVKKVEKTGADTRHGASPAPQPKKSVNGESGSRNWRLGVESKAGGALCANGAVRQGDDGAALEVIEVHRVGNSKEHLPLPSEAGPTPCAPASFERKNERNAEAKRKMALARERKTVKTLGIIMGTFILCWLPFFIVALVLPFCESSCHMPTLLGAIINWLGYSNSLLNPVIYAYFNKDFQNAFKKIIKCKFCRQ
In words: Radioligand binding, 5-HT1a ([3H]8-OH-DPAT). The following applies: Table 4; [3H]8-OH-DPAT 0.5 nM; read-out: Binding affinity, IC50 (nM) 5-HT1a. A digest of the protocol: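 Supplier-recommended protocol used throughout, with purchased membrane preparations carrying each receptor as the binding source.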

For another data set, the target named is T3, 5-HT2c (Homo sapiens, UniProt P28335).
T3 construct: purchased Euroscreen/BioSignal Packard Inc
T3 sequence (P28335 33-458): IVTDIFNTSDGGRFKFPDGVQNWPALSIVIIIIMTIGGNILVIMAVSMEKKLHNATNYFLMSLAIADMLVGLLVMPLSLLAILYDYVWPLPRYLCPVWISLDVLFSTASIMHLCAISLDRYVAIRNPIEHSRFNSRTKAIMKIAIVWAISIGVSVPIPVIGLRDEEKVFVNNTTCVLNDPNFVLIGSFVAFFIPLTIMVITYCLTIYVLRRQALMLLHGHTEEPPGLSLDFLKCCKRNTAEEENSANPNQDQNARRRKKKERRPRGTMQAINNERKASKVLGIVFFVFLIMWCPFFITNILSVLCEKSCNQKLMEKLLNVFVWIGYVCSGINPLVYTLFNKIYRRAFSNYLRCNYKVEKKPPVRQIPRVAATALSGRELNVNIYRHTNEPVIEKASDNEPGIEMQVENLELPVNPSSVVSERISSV
In words: Radioligand binding, 5-HT2c ([3H]Mesulergine). To be noted: Table 4; [3H]Mesulergine 1 nM; read-out: Binding affinity, IC50 (nM) 5-HT2c.

The test system of data set [1] is HeLa cells transfected with the human 5-HT6 receptor. In words: Cytotoxicity in HeLa cells transfected with the human 5-HT6 receptor. To be noted: at the concentrations tested. The format is cell-based.

The structures appear in SMILES notation.

T1 sequence (P34969 whole entry): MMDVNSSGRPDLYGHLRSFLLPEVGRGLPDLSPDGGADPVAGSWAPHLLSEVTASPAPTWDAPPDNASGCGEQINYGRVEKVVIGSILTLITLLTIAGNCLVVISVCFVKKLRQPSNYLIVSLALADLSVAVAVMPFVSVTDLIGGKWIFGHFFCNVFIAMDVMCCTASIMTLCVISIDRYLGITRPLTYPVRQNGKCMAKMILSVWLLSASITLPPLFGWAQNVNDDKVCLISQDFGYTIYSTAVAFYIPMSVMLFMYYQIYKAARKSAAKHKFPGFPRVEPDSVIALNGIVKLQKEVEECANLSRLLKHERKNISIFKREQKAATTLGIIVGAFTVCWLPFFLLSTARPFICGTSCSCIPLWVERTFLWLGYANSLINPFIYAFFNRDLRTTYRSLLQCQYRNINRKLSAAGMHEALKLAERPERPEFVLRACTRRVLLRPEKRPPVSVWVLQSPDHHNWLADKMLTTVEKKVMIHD

Regarding `COc1ccc(C2(C)C(=O)c3c(N4CCNCC4)cc(Cl)cc3N(Cc3ccccc3)C2=O)cc1` (racemic) [Example 13, 1-Benzyl-7-chloro-3-(4-methoxy-phenyl)-3-methyl-5-piperazin-1-yl-1H-quinoline-2,4-dione], the values for the IC50 at 5-HT7, at 5-HT1a and on 5-HT2c were 9000 nM, 1360 nM and 437 nM, respectively.
With `CC1(c2ccc(O)cc2)C(=O)c2c(N3CCNCC3)cc(Cl)cc2N(Cc2ccccc2)C1=O` (racemic) [Example 14, 1-Benzyl-7-chloro-3-(4-hydroxy-phenyl)-3-methyl-5-piperazin-1-yl-1H-quinoline-2,4-dione], in data set [1], the cytotoxicity entry is “did not show any cytotoxicity”. The half-maximal inhibitory concentration (IC50) is 3570 nM on 5-HT7, greater than 10000 nM on 5-HT1a and greater than 10000 nM on 5-HT2c.
